Data published in the supplement of paper PMC4862054.

Tests used:
Test in all cases: normalised response (% of control), CellTiter-Glo; higher = more viable cells (100 = DMSO, 0 = benzethonium chloride kill control)
Details in all cases: incubation time: 72 h
[1] = test system: BT-549
How it was run: (§1)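 Every value is a normalised signal taken at one concentration of a dilution series. Compound was placed in 384-well plates at 5 concentrations in 10-fold steps over a compound-specific 10,000-fold range, and 20 µl of breast cancer cell suspension was seeded onto it. After 72 h, CellTox Green fluorescence (485/520 nm) was measured first and CellTiter-Glo luminescence second, following 10 min at room temperature. Each plate was scaled to 0.1 % DMSO (100) and a positive kill control (0).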

[2] = test system: HDQ-P1
How it was run: as §1

[3] = test system: MFM-223
How it was run: as §1

[4] = test system: MDA-MB-436
How it was run: as §1

[5] = test system: HCC1599
How it was run: as §1

[6] = test system: MCF-10A
How it was run: as §1

[7] = test system: MDA-MB-453
How it was run: as §1

[8] = test system: BT-474
How it was run: as §1

Compound: CC[C@@]1(O)C(=O)OCc2c1cc1n(c2=O)Cc2cc3c(CN(C)C)c(O)ccc3nc2-1 [Topotecan] (100 nM)
- normalised response [1]: 84.2%
- normalised response [2]: 95.7%
- normalised response [3]: 97.4%
- normalised response [4]: 75.2%
- normalised response [5]: 65.5%
- normalised response [6]: 90.2%
- normalised response [7]: 133%
- normalised response [8]: 91.9%
